{
  "source": "paper PMC4261997",
  "about": "(British Journal of Pharmacology, 2014)",
  "key": {"human β1-adrenoceptor [1]": {"target": "T1, human β1-adrenoceptor (Homo sapiens, UniProt P08588)", "T1 sequence (P08588 whole entry)": "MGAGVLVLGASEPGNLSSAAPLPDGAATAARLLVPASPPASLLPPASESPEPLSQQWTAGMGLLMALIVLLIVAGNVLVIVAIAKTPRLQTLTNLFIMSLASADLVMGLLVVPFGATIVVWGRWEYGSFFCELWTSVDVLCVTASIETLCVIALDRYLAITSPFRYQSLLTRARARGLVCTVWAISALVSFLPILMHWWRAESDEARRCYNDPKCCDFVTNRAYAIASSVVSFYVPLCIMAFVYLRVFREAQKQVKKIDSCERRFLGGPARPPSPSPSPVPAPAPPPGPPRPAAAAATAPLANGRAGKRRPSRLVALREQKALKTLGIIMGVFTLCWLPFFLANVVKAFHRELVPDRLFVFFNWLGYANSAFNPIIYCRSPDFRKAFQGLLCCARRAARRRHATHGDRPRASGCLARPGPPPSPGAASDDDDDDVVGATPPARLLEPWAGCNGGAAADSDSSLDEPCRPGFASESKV", "test": "Automated live cell BODIPY-TMR-CGP binding, ImageXpress ultra confocal plate reader, CHO-β1 cells", "conditions": "100 nM BOD-CGP; from two-site inhibition curve of the named antagonist, 1 h incubations"}, "human β1-adrenoceptor [2]": {"target": "T1, human β1-adrenoceptor", "test": "CRE-mediated SPAP transcription reporter gene assay in CHO-β1 cells", "type": "cell-based", "conditions": "for Proportion of low-affinity secondary site (site 2) bound: calculated from affinity values of the functional responses"}, "β2-adrenoceptor": {"target": "β2-adrenoceptor", "conditions": "read-out: affinity value for the β2-adrenoceptor; ref Baker et al., [2003b]; cited from earlier work"}},
  "data": [
    {"substance": "Bordifluoropyrromethane-tetramethylrhodamine-(±)CGP 12177 [BODIPY-TMR-CGP]", "values": [
      {"measurement": "Fraction of BOD-CGP bound to the low-affinity binding site (%)", "setting": "human β1-adrenoceptor [1]", "value": "42.8 ± 0.9", "unit": "%"},
      {"measurement": "Proportion of low-affinity secondary site (site 2) bound", "setting": "human β1-adrenoceptor [2]; 2 nM BODIPY-TMR-CGP", "value": 2, "unit": "%"},
      {"measurement": "Proportion of low-affinity secondary site (site 2) bound", "setting": "human β1-adrenoceptor [2]; 20 nM BODIPY-TMR-CGP", "value": "circa 17%"},
      {"measurement": "EMAX (% cimaterol)", "setting": "human β1-adrenoceptor [2]; % of the maximum cimaterol response, CHO-β1 cells", "value": "25.6 ± 3.2", "unit": "%"},
      {"measurement": "pEC50", "setting": "human β1-adrenoceptor [2]; agonist stimulation of SPAP transcription, CHO-β1 cells", "value": "7.12 ± 0.13"},
      {"measurement": "pKD (against CGP 12177)", "setting": "human β1-adrenoceptor [2]; antagonism of CGP 12177 concentration-response curves, low-affinity site 2", "value": "7.28 ± 0.22"},
      {"measurement": "pKD (against cimaterol)", "setting": "human β1-adrenoceptor [2]; antagonism of cimaterol concentration-response curves, high-affinity site 1", "value": "9.23 ± 0.06"},
      {"measurement": "pKA (partial agonism)", "setting": "human β1-adrenoceptor [2]; from partial agonist concentration-response curve, operational model, cimaterol as full agonist, site 2", "value": "7.06 ± 0.13"},
      {"measurement": "Kd", "setting": "β2-adrenoceptor", "value": 25, "unit": "nM"}
    ]}
  ]
}
